Laboratory results published in BindingDB's records for doi:10.1016/j.bmcl.2009.01.090 (Gsk, 2009).
pIC50: −log10 of the molar value.

Biological target: T1, Gag-Pol polyprotein [1148-1435] (Human immunodeficiency virus 1, UniProt P04585)
T1 construct: 1148-1435
Test: HIV Integrase Strand Transfer Scintillation Proximity Assay (SPA)
Details: pH 7.2; 37 °C
Method: Purified recombinant integrase was first combined in a complex with biotinylated donor DNA- streptavidin-coated SPA beads. The complex was preincubated with the test compound, and strand transfer was initiated with a radiolabeled target DNA substrate. After incubation, the incorporated radioactivity was read in a Wallac MicroBeta scintillation plate reader using a counting protocol that corrected for optical cross talk between wells.

Row | SMILES | pIC50
1 | O=S1(=O)CCCCN1c1nc(-c2noc(Cc3ccc(F)cc3)n2)c(O)c2ncccc12 [2-(7-{5-[(4-fluorophenyl)methyl]-1,2,4-oxadiazol-3-yl}-8-hydroxy-1,6-naphthyridin-5-yl)-1,2-thiazinane-1,1-dione] | < 4.00
2 | O=C(NCc1ccc(F)cc1)c1nc(N2CCCCS2(=O)=O)c2cccnc2c1O [5-(1,1-dioxo-1,2-thiazinan-2-yl)-N-[(4-fluorophenyl)methyl]-8-hydroxy-1,6-naphthyridine-7-carboxamide] | 7.89
3 | Oc1c(-c2noc(-c3ccccc3)n2)ncc2cccnc12 [7-(5-phenyl-1,2,4-oxadiazol-3-yl)-1,6-naphthyridin-8-ol] | < 4.00
4 | Cn1nc(Cc2ccc(F)cc2)nc1-c1ncc2cccnc2c1O [7-{3-[(4-fluorophenyl)methyl]-1-methyl-1H-1,2,4-triazol-5-yl}-1,6-naphthyridin-8-ol] | < 3.30
